Results on 25 compounds are retold here after US8163756B2 (priority 2004, dated 2012).

Assay type in all cases: biochemical
For one experiment, the target named is B-Raf(V599E) kinase (Homo sapiens, UniProt P15056, V600E). Briefly: B-Raf(V599E) kinase assay B1 (construct 1, MEK1 substrate, coupled spectrophotometric). The procedure:
The test compounds were incubated with the reaction mixtureat 30° C. for 2 h. […] The reaction rate was calculated using the […] time frame. […] IC50 values were calculated from a series of percent inhibition values determined at a range of inhibitor concentrations using software routines as implemented in the GraphPad Prism software package.

The target of experiment [1] is T1, KDR kinase (Homo sapiens, UniProt P35968, DEL940-989/E990V). The experiment can be described thus: KDR kinase assay K2 (as K1, 2.1 nM enzyme, 2 h pre-incubation, 1.0 mM ATP). The following applies: Method K2; read-out: KDR Data (IC50). The procedure: (§1) IC50 values were calculated from a series of percent inhibition values determined at a range of inhibitor concentrations using software routines as implemented in the GraphPad Prism software package.
T1 sequence (P35968 with tags, fused parts or gaps DEL940-989/E990V): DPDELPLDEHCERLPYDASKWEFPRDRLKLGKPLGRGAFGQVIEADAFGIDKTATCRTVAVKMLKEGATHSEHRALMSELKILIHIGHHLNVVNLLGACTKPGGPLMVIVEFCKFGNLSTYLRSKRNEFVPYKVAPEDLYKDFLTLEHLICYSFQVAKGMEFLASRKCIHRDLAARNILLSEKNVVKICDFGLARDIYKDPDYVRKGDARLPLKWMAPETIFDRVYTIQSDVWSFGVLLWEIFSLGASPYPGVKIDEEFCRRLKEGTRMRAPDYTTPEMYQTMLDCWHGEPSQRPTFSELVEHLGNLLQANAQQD

The target of a further experiment is T2, Abl kinase (Homo sapiens, UniProt P00519).
T2 sequence (P00519 229-512): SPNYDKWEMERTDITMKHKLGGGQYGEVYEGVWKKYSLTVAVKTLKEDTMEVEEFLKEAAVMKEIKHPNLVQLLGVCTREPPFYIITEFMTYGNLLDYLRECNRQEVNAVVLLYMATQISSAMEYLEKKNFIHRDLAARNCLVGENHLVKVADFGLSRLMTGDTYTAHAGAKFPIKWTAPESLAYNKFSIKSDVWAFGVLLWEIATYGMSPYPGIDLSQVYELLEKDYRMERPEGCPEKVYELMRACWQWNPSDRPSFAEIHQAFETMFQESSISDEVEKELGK
The experiment can be described thus: Abl kinase assay A1 (pyruvate kinase/lactate dehydrogenase coupled, spectrophotometric). The following applies: Method A1; read-out: Abl Data (IC50). How it is done: as §1

In experiment [2] the target is T1, KDR kinase. Briefly: KDR kinase assay K1 (pyruvate kinase/lactate dehydrogenase coupled, spectrophotometric). As to conditions: Method K1; read-out: KDR Data (IC50). The procedure: as §1
Experiment [3] deals with phosphorylated p-38-alpha kinase (Homo sapiens, UniProt Q16539). Briefly: P-38 alpha kinase assay P1 (coupled spectrophotometric, 2 h pre-incubation). As to conditions: method P1 (2 h pre-incubation); read-out: P-38 Data.
Sequence of phosphorylated p-38-alpha kinase (Q16539 1-360 isoform Q16539-2): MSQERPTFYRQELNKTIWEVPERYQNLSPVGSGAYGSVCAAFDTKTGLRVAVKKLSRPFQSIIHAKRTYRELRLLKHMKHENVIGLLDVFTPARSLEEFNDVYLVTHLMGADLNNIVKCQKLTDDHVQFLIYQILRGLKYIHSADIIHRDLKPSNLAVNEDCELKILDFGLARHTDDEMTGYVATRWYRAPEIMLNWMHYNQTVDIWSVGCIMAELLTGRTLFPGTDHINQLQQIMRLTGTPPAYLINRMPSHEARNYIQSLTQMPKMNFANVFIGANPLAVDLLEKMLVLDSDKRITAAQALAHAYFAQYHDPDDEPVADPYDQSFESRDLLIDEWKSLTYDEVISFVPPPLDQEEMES

Sequence of B-Raf(V599E) kinase (P15056 with tags, fused parts or gaps V600E): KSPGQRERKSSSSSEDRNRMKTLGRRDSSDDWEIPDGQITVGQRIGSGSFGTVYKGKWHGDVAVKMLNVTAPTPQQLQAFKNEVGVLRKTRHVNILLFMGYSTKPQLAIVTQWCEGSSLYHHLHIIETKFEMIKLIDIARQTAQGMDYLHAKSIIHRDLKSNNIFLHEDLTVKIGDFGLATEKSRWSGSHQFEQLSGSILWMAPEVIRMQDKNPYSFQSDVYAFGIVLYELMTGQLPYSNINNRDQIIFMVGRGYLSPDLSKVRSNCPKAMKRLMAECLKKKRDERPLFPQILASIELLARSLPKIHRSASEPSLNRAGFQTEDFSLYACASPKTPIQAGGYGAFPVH

For the compound `CC(C)(C)c1cc(NC(=O)Nc2ccc(Cl)cc2)n(-c2cccc(CN3C(=O)C(=O)NS3(=O)=O)c2)n1` [Example 225, 1-{5-t-butyl-2-[3-(1,1,3,4-tetraoxo-1λ^6-[1,2,5]thiadiazolidin-2-ylmethyl)phenyl]-2H-pyrazol-3-yl}-3-(4-chlorophenyl)urea], the IC50 at B-Raf(V599E) kinase was determined as 170 nM; at KDR kinase [1] it was 9600 nM.
In the case of `CC(C)(C)c1cc(NC(=O)Nc2ccc(Cl)cc2)n(-c2cccc(CCO)c2)n1` [Example 342, 1-{3-t-butyl-1-[3-(2-hydroxyethyl)phenyl]-1H-pyrazol-5-yl}-3-(4-chlorophenyl)-urea], the IC50 on KDR kinase [1] came out at 5700 nM.
In the case of `CC(C)(C)c1cc(NC(=O)Nc2cccc(F)c2F)n(-c2ccc3c(c2)CCNC(=O)C3)n1` [Example 334, 1-(3-t-butyl-1-(2-oxo-2,3,4,5-tetrahydro-1H-benzo[d]azepin-7-yl)-1 H-pyrazol-5-yl)-3-(2,3-difluorophenyl)urea], the IC50 against B-Raf(V599E) kinase is 11 nM; on KDR kinase [1], 3400 nM.
The matching figures for `CCOC(=O)C1CCCN(C(=O)Cc2cccc(-n3nc(C(C)(C)C)cc3NC(=O)Nc3cccc(Cl)c3Cl)c2)C1` (stereo not shown) [Example 397, ethyl 1-[2-(3-{3-t-butyl-5-[3-(2,3-dichlorophenyl)ureido]-1H-pyrazol-1-yl}phenyl)acetyl]piperidine-3-carboxylate]: 57 nM and 3400 nM.
Turning to `CC(C)(C)c1cc(NC(=O)Nc2ccc(F)c(F)c2)n(-c2cccc(C#N)c2)n1` [Example 206, 1-(3-t-butyl-1-(3-cyanophenyl)-1H-pyrazol-5-yl)-3-(3,4-difluorophenyl)urea], the IC50 at KDR kinase [1] is 480 nM.
The same measure, in the same setting: under `CCOC(=O)C1CCCN(C(=O)Cc2ccc(-n3nc(C(C)(C)C)cc3NC(=O)Nc3cccc(Cl)c3Cl)cc2)C1` (stereo not shown) [Example 346, ethyl 1-[2-(4-{3-t-butyl-5-[3-(2,3-dichlorophenyl)ureido]-1H-pyrazol-1-yl}phenyl)acetyl]piperidine-3-carboxylate] stands 1700 nM; under `CC(C)(C)c1cc(NC(=O)N[C@H]2CCc3ccccc32)n(-c2ccc3c(c2)CCNC3)n1` [Example 199, 1-(3-t-butyl-1-(1,2,3,4-tetrahydroisoquinolin-6-yl)-1H-pyrazol-5-yl)-3-((S)-2,3-dihydro-1H-inden-1-yl)urea], 34400 nM; under `COc1cccc(-n2nc(C(C)(C)C)cc2NC(=O)Nc2ccc(Cl)c(Cl)c2)c1` [Example 337, 1-(3-t-butyl-1-(3-methoxyphenyl)-1H-pyrazol-5-yl)-3-(3,4-dichlorophenyl)urea], 2000 nM.
On the same count and under the same terms, under `COc1cccc(-n2nc(C(C)(C)C)cc2NC(=O)Nc2ccc([N+](=O)[O-])cc2)c1` [Example 338, 1-(3-t-butyl-1-(3-methoxyphenyl)-1H-pyrazol-5-yl)-3-(4-nitrophenyl)urea] stands 5000 nM.
The same measure, in the same setting: under `CC(C)(C)c1cc(NC(=O)Nc2cc(F)cc(F)c2F)n(-c2cccc(C#N)c2)n1` [Example 209, 1-(3-t-butyl-1-(3-cyanophenyl)-1H-pyrazol-5-yl)-3-(2,3,5-trifluorophenyl)urea] stands 260 nM.
`CC(C)(C)c1cc(NC(=O)Nc2ccc(F)cc2F)n(-c2ccc3c(c2)CCN(S(C)(=O)=O)C3)n1` [Example 200, 1-(3-t-butyl-1-(2-(methylsulfonyl)-1,2,3,4-tetrahydroisoquinolin-6-yl)-1H-pyrazol-5-yl)-3-(2,4-difluorophenyl)urea]: the IC50 at KDR kinase [1] amounted to 2700 nM.
For `CC(C)(C)c1cc(NC(=O)Nc2cccc(Cl)c2Cl)n(-c2ccc3c(c2)C[C@@H](C(=O)O)NC3)n1` [Example 186, (3S)-6-(3-t-butyl-5-(3-(2,3-dichlorophenyl)ureido)-1H-pyrazol-1-yl)-1,2,3,4-tetrahydroisoquinoline-3-carboxylic acid], the IC50 on Abl kinase turned out to be 60 nM; against B-Raf(V599E) kinase, 9.2 nM; at KDR kinase [2], 900 nM; in experiment [3], 50 nM.
The matching figures for `CC(C)(C)c1cc(NC(=O)Nc2cccc(Cl)c2Cl)n(-c2ccc3c(c2)CCNCC3)n1` [Example 166, 1-(3-t-butyl-1-(2,3,4,5-tetrahydro-1H-benzo[d]azepin-7-yl)-1 H-pyrazol-5-yl)-3-(2,3-dichlorophenyl)urea]: 230 nM, 5.7 nM, 210 nM and 61 nM.
Turning to `CC(C)(C)c1cc(NC(=O)Nc2cccc3ccccc23)n(-c2ccc3c(c2)C(=O)NCC3)n1` [Example 348, 1-[3-t-butyl-1-(1-oxo-1,2,3,4-tetrahydroisoquinolin-7-yl)-1 H-pyrazol-5-yl]-3-(naphthalen-1-yl)urea], the IC50 at KDR kinase [1] came to 16500 nM.
Same read-out and setting: under `CC(C)(C)c1cc(NC(=O)Nc2cc(F)cc(F)c2)n(-c2cccc(C#N)c2)n1` [Example 208, 1-(3-t-butyl-1-(3-cyanophenyl)-1H-pyrazol-5-yl)-3-(3,5-difluorophenyl)urea] stands 470 nM; under `CCOC(=O)C1CCN(C(=O)Cc2cccc(-n3nc(C(C)(C)C)cc3NC(=O)Nc3cccc(Cl)c3Cl)c2)CC1` [Example 344, ethyl 1-[2-(3-{3-t-butyl-5-[3-(2,3-dichlorophenyl)ureido]-1H-pyrazol-1-yl}phenyl)acetyl]piperidine-4-carboxylate], 2700 nM; under `CC(C)(C)c1cc(NC(=O)Nc2ccc(Cl)cc2)n(-c2ccc3ncccc3c2)n1` [Example 339, 1-[3-t-butyl-1-(quinolin-6-yl)-1H-pyrazol-5-yl]-3-(4-chlorophenyl)urea], 1200 nM.
Still for that read-out and setting: under `CC(C)(C)c1cc(NC(=O)Nc2ccc(Cl)cc2)n(-c2cccc(CNC(=O)N3CCOCC3)c2)n1` [Example 343, 1-(3-t-butyl-1-{3-[(morpholine-4-carboxamido)methyl]phenyl}-1H-pyrazol-5-yl)-3-(4-chlorophenyl)urea] stands 18000 nM.
In the case of `CC(C)(C)c1cc(NC(=O)Nc2cccc(Cl)c2Cl)n(-c2ccc3c(c2)C(=O)NCC3)n1` [Example 122, 1-[3-t-butyl-1-(1-oxo-1,2,3,4-tetrahydroisoquinolin-7-yl)-1H-pyrazol-5-yl]-3-(2,3-di-chlorophenyl)urea], the IC50 is 2800 nM at Abl kinase, 11 nM at B-Raf(V599E) kinase, 1400 nM on KDR kinase [2] and 130 nM in experiment [3].
The matching figures for `CC(C)(C)c1cc(NC(=O)Nc2cccc(Cl)c2Cl)n(-c2ccc3c(c2)CCC(=O)N3)n1` [Example 131, 1-[3-t-butyl-1-(2-oxo-1,2,3,4-tetrahydroquinolin-6-yl)-1H-pyrazol-5-yl]-3-(2,3-dichlorophenyl)urea]: 280 nM, 1.9 nM, 77 nM and 33 nM.
The matching figures for `CC(C)(C)c1cc(NC(=O)Nc2cccc(Cl)c2Cl)n(-c2cccc(CCC(=O)O)c2)n1` [Example 46, 3-(3-{3-t-Butyl-5-[3-(2,3-dichloro-phenyl)ureido]-1H-pyrazol-1-yl}-phenyl)propionic acid]: 2500 nM, 3.3 nM, 170 nM and 6 nM.
Taken in the same sequence, the figures for `CC(C)(C)c1cc(NC(=O)Nc2cccc(Cl)c2Cl)n(-c2ccc3c(c2)CN[C@H](C(=O)O)C3)n1` [Example 177, (3S)-7-(3-t-butyl-5-(3-(2,3-dichlorophenyl)ureido)-1H-pyrazol-1-yl)-1,2,3,4-tetra-hydroisoquinoline-3-carboxylic acid] were 1800 nM, 6.3 nM, 230 nM and 43 nM.
For the compound `CC(C)(C)c1cc(NC(=O)Nc2cccc(Cl)c2Cl)n(-c2ccc3c(c2)CCNC(=O)C3)n1` [Example 165, 1-(3-t-butyl-1-(2-oxo-2,3,4,5-tetrahydro-1H-benzo[d]azepin-7-yl)-1H-pyrazol-5-yl)-3-(2,3-dichlorophenyl)urea], the IC50 at Abl kinase was 200 nM; against B-Raf(V599E) kinase, 2.4 nM; at KDR kinase [2], 210 nM; in experiment [3], 7 nM.
As to `CC(C)(C)c1cc(NC(=O)Nc2cccc(Cl)c2Cl)n(-c2cccc(C(=N)N)c2)n1` [Example 44, 1-[3-t-butyl-1-(3-carbamimidoylphenyl)-1H-pyrazol-5-yl]-3-(2,3-dichlorophenyl)urea], the IC50 on Abl kinase is 440 nM; on B-Raf(V599E) kinase it was 4 nM; on KDR kinase [2] it was 2400 nM; in experiment [3] it was 70 nM.
Take `CC(C)(C)c1cc(NC(=O)Nc2cccc(Cl)c2Cl)n(-c2cc(CNC(=O)NS(C)(=O)=O)c3ccccc3c2)n1` [Example 75, 1-{3-t-butyl-1-[1-(methanesulfonylureidoamidomethyl)naphthalen-3-yl]-1H-pyrazol-5-yl}-3-(2,3-dichlorophenyl-1-yl)urea]: the IC50 turned out to be 63 nM at Abl kinase, 4.2 nM on B-Raf(V599E) kinase, 140 nM on KDR kinase [2] and 6 nM in experiment [3].
